Values joined by “and” are separate entries in the source; they are usually repeats but may differ in a detail not shown here. Identical values can stand only once.
Assays:
HIV-1 integrase = HIV-1 integrase (Human immunodeficiency virus type 1 group M subtype B, UniProt P04585); experiment: Integrase inhibition assay (autoradiography); assay type: biochemical
From the text: A biochemical integrase assay described by Craigie et at (HIV, vol. 2: A practical Approach) Biochemistry, Molecular Biology and Drug Discovery, Ed. J. Kam 1995) to screen agents for their ability to inhibit HIV-1 integrase can be used. In this system, a kinased oligonucleotide serves as the target of 3′ processing and the subsequent strand transfer reaction. The 3′ processing reaction involves the removal of 2 nucleotides from the 3′ ends of the substrate. This is followed by the strand transfer reaction in which the 3′ ends are joined to the exposed 5′ ends. The 20 μl reaction mixture contains 25 mM MOPS (pH 7.2), […] BSA, 10 mM β-mercaptoethanol, 10% glycerol; 7.5 mM MnCl2, 25 nM (7 ng) substrate (Oligo's Etc., Wilsonville, Oreg.) and 200 nM (128 ng) integrase (NIAID AIDS Research and Reference Reagent Program, Bethesda, Md.). The reaction proceeds at 37° C. for 1-2 hours and is terminated by the addition of 20 μl of sequencing stop solution (USB Amersham, Arlington Heights, Ill.). The reaction products are visualized by autoradiography following electrophoresis in 15% polyacrylamide 6M Urea gel. The substrate migrates as a 30 mer, the product of 3′ processing migrates as an N-2 band and the strand transfer products migrate more slowly at various sizes larger than the substrate.
The mechanism of action of the (5-aryl-1,2,4-thiadiazol)-3-yl thiourea derivatives or (5-aryl-1,2,4-thiadizol)-3-yl urea derivatives is not known.

[1] = tested on: Human Herpes Virus 8 (HHV8); experiment: Kaposi's sarcoma / HHV8 DNA copy number in TPA-induced BCBL-1 cells; assay type: cell-based
Method: The DNA copy number and the toxicity value were measured and compared with Cidofovir. Kaposi's sarcoma (KS) is a cancer that is often found in people with weak immune systems, such as those taking immunosuppressants or those with AIDS. The exact nature of the disease is uncertain, but it is almost always found in association with HHV8.

vero cells = experiment: Herpes simplex testing, toxicity (TC50); set-up: unit not given beside the values
[2] = tested on: U937RF, a protease resistant strain; experiment: Long term in vitro study, U937RF; assay type: cell-based, HIV
Method: Toxicity quantification involves the XTT-based evaluation. Assays were designed to characterize the long term effects of the compounds on virus production and to characterize the longer term effects of the compounds on virus production from chronically HIV infected cells.
CEM-SS cells chronically infected with HIV isolate, for example SKI (CEM-SKI) are cultured in RPMI1640 tissue culture medium supplemented with 10% fetal bovine serum and antibiotics. […] CEM-SKI or other infected cells with no added drug are used as the control cells.
Cells are allowed to grow to a density of approximately 1×10^6 cells/ml and are then passaged at a 1:10 dilution. […] The drug concentration in the flask is then increased two-fold and the cells maintained as above.
The cell populations contain integrated copies of the HIV genome and constitutively produce HIV at relatively high levels or are latently infected and only produce virus after stimulation with phorbol esters, tumor necrosis factor or IL6(U1 and ACH2). Reductions in virus products were observed when quantifying supernatant reverse transcriptase activity.
The results with U937RF cells were reported at weekly intervals.

HEPG2 2.2.15 = experiment: Toxicity values in the hepatitis B test; assay type: cell-based; set-up: Toxicity Values, sample / Toxicity Values, mean: unit not given here
HIV-2 virus, CEMROD = experiment: In vitro screening test against HIV-2, reverse transcriptase activity; assay type: cell-based; set-up: Reverse Transcriptase Activity, sample / Reverse Transcriptase Activity, average: unit not given here
From the text: The results of one test are shown below

## NC(=S)Nc1nsc(-c2ccccc2)n1
HIV-1 integrase
  EC50: > 423 µM
  activity as an integrase inhibitor: did not show activity
HIV-1 integrase; 1 μg/ml, read-out: HIV-1 integrase inhibition, % no drug control
  remaining activity at 1 µg/mL: 108%
HIV-1 integrase; 10 μg/ml, read-out: HIV-1 integrase inhibition, % no drug control
  remaining activity at 10 µg/mL: 117%
HIV-1 integrase; 100 μg/ml, read-out: HIV-1 integrase inhibition, % no drug control
  remaining activity at 100 µg/mL: 106%
HIV-1 integrase; read-out: HIV-1 integrase inhibition, % no drug control
  remaining activity at 0.1 µg/mL: 98.8%
[1]; 0.64 μM
  % virus control: 79.1%
  DNA Copy Number (per 3 μl), average: 12198.1 per 3 μl
  DNA Copy Number (per 3 μl), sample: 1200.5 per 3 μl and 1258.4 per 3 μl and 1198.4 per 3 μl
[1]; 2 μM
  % virus control: 71.2%
  DNA Copy Number (per 3 μl), average: 1096.9 per 3 μl
  DNA Copy Number (per 3 μl), sample: 1100.2 per 3 μl and 1000.7 per 3 μl and 1189.7 per 3 μl
[1]; 6.4 μM
  % virus control: 67.0%
  DNA Copy Number (per 3 μl), average: 1032.6 per 3 μl
  DNA Copy Number (per 3 μl), sample: 1003.5 per 3 μl and 1084.5 per 3 μl and 1009.7 per 3 μl
[1]; 20 μM
  % virus control: 55.8%
  DNA Copy Number (per 3 μl), average: 860.2 per 3 μl
  DNA Copy Number (per 3 μl), sample: 747.8 per 3 μl and 841.6 per 3 μl and 991.2 per 3 μl
[1]; 64 μM
  % virus control: 48.9%
  DNA Copy Number (per 3 μl), average: 753.0 per 3 μl
[1]; 200 μM
  % virus control: 26.6%
  DNA Copy Number (per 3 μl), average: 410.7 per 3 μl
[1]; HHV8, BCBL-1 cells
  TI: TI = 1.8
[1]; Human gammaherpesvirus 8, BCBL1, HHV8 DNA copy number, BCBL-1 cells
  IC50: 56.8 µM
Vero cells
  TC50: > 200
[2]; 7 μg/ml, day 4
  virus production (supernatant reverse transcriptase activity): 1627
[2]; 7 μg/ml, day 11
  virus production (supernatant reverse transcriptase activity): 1526
[2]; 7 μg/ml, day 18
  virus production (supernatant reverse transcriptase activity): 4086
[2]; 7 μg/ml, day 25
  virus production (supernatant reverse transcriptase activity): 5303
[2]; 7 μg/ml, day 32
  virus production (supernatant reverse transcriptase activity): 4827
[2]; 7 μg/ml, day 39
  virus production (supernatant reverse transcriptase activity): 6008
[2]; 7 μg/ml, day 46
  virus production (supernatant reverse transcriptase activity): 3586
[2]; 7 μg/ml, day 53
  virus production (supernatant reverse transcriptase activity): 5726
[2]; 15 μg/ml, day 4
  virus production (supernatant reverse transcriptase activity): 1575
[2]; 15 μg/ml, day 11
  virus production (supernatant reverse transcriptase activity): 1482
[2]; 15 μg/ml, day 18
  virus production (supernatant reverse transcriptase activity): 3772
[2]; 15 μg/ml, day 25
  virus production (supernatant reverse transcriptase activity): 2654
[2]; 15 μg/ml, day 32
  virus production (supernatant reverse transcriptase activity): 1594
[2]; 15 μg/ml, day 39
  virus production (supernatant reverse transcriptase activity): 3538
[2]; 15 μg/ml, day 46
  virus production (supernatant reverse transcriptase activity): 2426
[2]; 15 μg/ml, day 53
  virus production (supernatant reverse transcriptase activity): 3976
[2]; 30 μg/ml, day 4
  virus production (supernatant reverse transcriptase activity): 1751
[2]; 30 μg/ml, day 11
  virus production (supernatant reverse transcriptase activity): 1237
[2]; 30 μg/ml, day 18
  virus production (supernatant reverse transcriptase activity): 2892
[2]; 30 μg/ml, day 25
  virus production (supernatant reverse transcriptase activity): 735
[2]; 30 μg/ml, day 32
  virus production (supernatant reverse transcriptase activity): 1035
[2]; 30 μg/ml, day 39
  virus production (supernatant reverse transcriptase activity): 1265
[2]; 30 μg/ml, day 46
  virus production (supernatant reverse transcriptase activity): 1358
[2]; 30 μg/ml, day 53
  virus production (supernatant reverse transcriptase activity): 2333
HEPG2 2.2.15; 0.64 μg/ml
  % cell control: 92.3%
  Toxicity Values, mean: 1.021
  Toxicity Values, sample: 0.985 and 0.999 and 1.079
HEPG2 2.2.15; 2 μg/ml
  % cell control: 83.0%
  Toxicity Values, mean: 0.919
  Toxicity Values, sample: 0.881 and 0.959 and 0.916
HEPG2 2.2.15; 6.4 μg/ml
  % cell control: 95.6%
  Toxicity Values, mean: 1.058
  Toxicity Values, sample: 0.940 and 1.218 and 1.015
HEPG2 2.2.15; 20 μg/ml
  % cell control: 84.2%
  Toxicity Values, mean: 0.932
  Toxicity Values, sample: 0.966 and 0.921 and 0.909
HEPG2 2.2.15; 64 μg/ml
  % cell control: 89.5%
  Toxicity Values, mean: 0.991
  Toxicity Values, sample: 0.962 and 1.037 and 0.973
HEPG2 2.2.15; 200 μg/ml
  % cell control: 76.7%
  Toxicity Values, mean: 0.849
  Toxicity Values, sample: 0.818 and 0.928 and 0.800
HEPG2 2.2.15; HEPG2 2.2.15
  TC50: > 200 µg/mL
HEPG2 2.2.15; HEPG2 2.2.15, replicate experiment
  TC50: > 200 µg/mL
HIV-2 virus, CEMROD; 0.32 μg/ml
  % virus control: 113.2%
  Reverse Transcriptase Activity, average: 5451
  Reverse Transcriptase Activity, sample: 4664 and 6972 and 4717
HIV-2 virus, CEMROD; 1 μg/ml
  % virus control: 95.5%
  Reverse Transcriptase Activity, average: 4601
  Reverse Transcriptase Activity, sample: 4005 and 4407 and 5392
HIV-2 virus, CEMROD; 1.0 μg/ml
  % virus control: 66.6%
  Reverse Transcriptase Activity, average: 3208
  Reverse Transcriptase Activity, sample: 3001 and 3077 and 3547
HIV-2 virus, CEMROD; 3.2 μg/ml
  % virus control: 74.9%
  Reverse Transcriptase Activity, average: 3606
  Reverse Transcriptase Activity, sample: 4166 and 3318 and 3334
HIV-2 virus, CEMROD; 32 μg/ml
  % virus control: 36.4%
  Reverse Transcriptase Activity, average: 1753
  Reverse Transcriptase Activity, sample: 1832 and 1550 and 1876
HIV-2 virus, CEMROD; 100 μg/ml
  % virus control: 1.2%
  Reverse Transcriptase Activity, average: 57
  Reverse Transcriptase Activity, sample: 72 and 48 and 52

Reference: patent US6410575B1, “Viral treatment” (The Procter & Gamble Company, priority 1999, dated 2002)
